Values of other authors as cited in US9919015B2, “Composition and method for inhibiting herpesviridae infections” (VIRATEC PTY LTD, priority 2005, dated 2018).
Read-outs that look alike come from different tables or passages of the source.

Assays:
[1] = test system: primary herpetic gingivostomatitis; conditions: Primary Herpetic Stomatitis
[2] = test system: recurrent genital herpetic infection; conditions: for healing rate, oral acyclovir: Nilsen et al. (1982); for healing rate, topical acyclovir: Corey et al. (1982)
[3] = test system: recurrent herpes labialis; conditions: treatment commenced within 1 hour; Rabon et al. (1989)
[4] = test system: herpes zoster; conditions: Esmann et al. (1982); Bean et al (1983)
[5] = test system: Oral Hairy Leukoplakia (EBV)

## Nc1nc2c(ncn2COCCO)c(=O)[nH]1 [Acyclovir, acyclovir]
[1]
  Expected healing time Acyclovir (upper end): ≤ 4 weeks
[1]; treated symptomatically or with acyclovir, listed as acyclovir
  Expected healing time Acyclovir: 10 to 28 days
[2]
  healing rate, oral acyclovir: 5 days oral
  healing rate, topical acyclovir: 7.4 days topical
[2]; listed as acyclovir
  healing rate, oral acyclovir: 5 days
  healing rate, topical acyclovir: 7.4 days
[3]
  complete healing with acyclovir: 7 to 8 days
  time to analgesia with acyclovir: 1 to 2 days
[4]
  time to initial crusting with acyclovir: 2 to 3 days
[5]; oral acyclovir, after 10 days, Resnick et al (1988)
  response, subjects: 5/6
[5]; Herbst et al. (1989), Resnick et al (1988)
  response time with oral acyclovir: 10-20 days - oral
[5]; Herbst et al. (1989), Resnick et al (1988), listed as acyclovir
  response time with oral acyclovir: 10 to 20 days
[5]; systemic acyclovir, after 20 days, Herbst et al. (1989)
  resolution of OHL, subjects: 12/14
